For experiment [1], the target named is T1, biotinylated BCL6 (5-129) (Homo sapiens, UniProt P41182).
T1 construct: biotinylated BCL6 (5-129) was diluted in 10 mM HEPES pH 7.4; biotin (biotinylated)
Put plainly: SPR assay for binding affinity to BCL6. Conditions: Biacore 8K, 25° C., immobilized biotinylated BCL6 (5-129). On the procedure:
Exemplary compounds were tested for ability to bind to B-cell lymphoma 6 (BCL6) protein.
Binding studies by surface plasmon resonance (SPR) were performed using a Biacore 8K (Cytiva) instrument at 25° C. Briefly, biotinylated BCL6 (5-129) was diluted in 10 mM HEPES pH 7.4, 150 mM NaCl, 0.05% Surfactant P20, 0.5 mM TCEP, 3% DMSO to 1-5 μg/mL and was immobilized on an SA sensor chip (Cytiva, BR100032), resulting in surface densities at 1000-3000 resonance units (RUs). Test compounds were serially diluted five times in the same buffer and were injected to the immobilized surface. Kinetic determination experiments were performed using single-cycle kinetics with 110-120 s contact time, 1000-4000 s dissociation time, 30 μL/min flow rate. Binding data were analyzed by using Biacore insight evaluation software to determine KD values for test compounds.
In general terms: SPR reads the build-up and loss of mass on a sensor chip optically.

In experiment [2] the target is T2, His-tagged BRD4 BD1 (46-168) (Homo sapiens, UniProt O60885).
T2 construct: His-tagged BRD4 BD1 (46-168) and biotinylated histone H4K5/8/12/16(Ac) peptide
Put plainly: AlphaLISA competition assay, BRD4 BD1. It is filed as binding. Conditions: BRD4-BD1, AlphaLISA competition with biotinylated histone H4K5/8/12/16(Ac) peptide, 10 nM. The protocol: (§1) Exemplary compounds were tested for ability to bind to bromodomain-containing protein 4 (BRD4).
(§2) Compounds were tested using a developed AlphaLISA competition assay. Briefly, His-tagged BRD4 BD1 (46-168) and biotinylated histone H4K5/8/12/16(Ac) peptide (ANASPEC, AS-64989-1) were incubated in 20 mM HEPES pH 7.5, 100 mM NaCl, 0.5 mM TCEP, 0.1% BSA, 0.02% CHAPS at a final concentration of 10 nM. Test compounds were serially diluted ten times in the same buffer and were added to the BRD4-peptide mixture for 1 h incubation at room temperature. Following incubation, Streptavidin AlphaLISA acceptor beads (PerkinElmer, AL125M) were added to BRD4-peptide-compound samples to a final concentration of 0.01 mg/mL for a 0.5 h incubation at room temperature in the dark. Following incubation, the same amount of Nickel Chelate Alpha donor beads (PerkinElmer, AS101M) were added to the samples for a final 1 h incubation. The AlphaLISA signals were measured using an EnVision plate reader (PerkinElmer). The data were uploaded to Screening Ultra (Dotmatics) to determine the half-maximal inhibitory concentration (IC50) for each test compound.
(In general: Alpha assays give light when donor and acceptor beads are brought close together.)

The target of experiment [3] is T3, His-tagged BRD4 BD2 (333-460) (Homo sapiens, UniProt O60885).
T3 construct: The same assay was developed for His-tagged BRD4 BD2 (333-460) and biotinylated histone H4K5/8/12/16(Ac) peptide
Put plainly: AlphaLISA competition assay, BRD4 BD2. Conditions: BRD4-BD2, AlphaLISA competition with biotinylated histone H4K5/8/12/16(Ac) peptide, 20 nM. It is filed as binding. On the procedure: as §1, §2
The same assay was developed for His-tagged BRD4 BD2 (333-460) and biotinylated histone H4K5/8/12/16(Ac) peptide at a final concentration of 20 nM.

Experiment [4] relates to T-Rex 293 cell line SC cells having increased expression of BCL6 protein. Put plainly: Cellular growth inhibition assay, T-Rex 293 SC cells with doxycycline (CellTiter-Glo). It counts as cell-based. Particulars: T-Rex 293 SC cells with 10 ng/mL doxycycline (increased BCL6 expression), 72 hours, CellTiter-Glo 2.0. The protocol: (§3) Exemplary compounds were tested for ability to inhibit the proliferation of the following types of cells: (i) a T-Rex 293 cell line having increased expression of BCL6 protein due to exposure of doxycycline and (ii) a T-Rex 293 cell line lacking increased expression of BCL6 protein.
(§4) The following types of cells were prepared for this experiment: (i) a T-Rex 293 cell line having increased expression of BCL6 protein due to exposure to doxycycline and (ii) a T-Rex 293 cell line lacking increased expression of BCL6 protein. Ability of the test compounds to inhibit proliferation of the foregoing cell types was evaluated according to the procedures set forth below.
(§5) The doxycycline-inducible BCL6 protein expressing cell line was established using the following protocol: T-Rex 293 cells were purchased from Invitrogen (Cat #R71007) and transfected using Lipofectamine 2000 with the wild-type BCL6 protein sequence cloned into the pcDNA4/TO vector. Transfected cells were selected using 400 μg/mL Zeocin (Invitrogen Cat #R25001). Following selection, single clones were raised and maintained in Dulbecco's Modified Eagle Medium (DMEM) supplemented with 10% w/w Tetracycline-free fetal bovine serum (FBS) and 250 μg/mL Zeocin. Clones were analyzed for expression of BCL6 protein in the presence and absence of 10 ng/mL doxycycline (Sigma Cat #D9891), and a single doxycycline-inducible clone (hereinafter “SC”) was selected for use in downstream assays.
(§6) The SC cells were seeded on poly-D-lysine coated, black clear-bottom 384-well plates at 2500/well, in 25 μL Dulbecco's Modified Eagle Medium (DMEM) supplemented with 10% w/w Tetracycline-free fetal bovine serum (FBS) and 1% w/w pen-strep, with or without 10 ng/mL doxycycline. Pen-Strep is a commercially available mixture of penicillin G and streptomycin, which is used in mammalian cell culture media to prevent bacterial contamination. Dulbecco's Modified Eagle Medium (DMEM) supplemented with 10% w/w Tetracycline-free fetal bovine serum (FBS) and 1% w/w pen-strep, with or without 10 ng/mL doxycycline is herein referred to as Treatment Medium. Following seeding of cells in the plates, the plates were spun at 300×g for 30 seconds, then equilibrated to room temperature for 30 minutes, and then deposited in a humidified tissue culture incubator maintained at 37° C. with 5% CO2.
(§7) At 24 hours after seeding of the cells, dilutions of test compound were prepared in DMSO and dissolved in Treatment Medium, to achieve a final DMSO concentration of 0.5% w/w, thereby providing the Test Compound Solution. A 25 μL aliquot of the Test Compound Solution was added to cells in the well plates. An equal volume of a solution containing DMSO and Treatment Medium was used as a negative control. Following treatment of cells with Test Compound Solution or said equal volume of a solution containing DMSO and Treatment Medium, the plates were spun at 300×g for 30 seconds, and then left in an incubator for 72 hours.
(§8) At the end of the treatment duration, cell viability was quantified with CellTiter-Glo 2.0 reagent (Promega Cat #G9243). For this purpose, plates were equilibrated to room temperature for 30 minutes, and then 25 μL of CellTiter-Glo 2.0 reagent was added to cells in the plate wells. Plates were then agitated on a shaker for two minutes at 500 rpm and subsequently incubated at room temperature for 10 minutes. Following incubation, the plates were spun at 3000×g for 30 seconds, then sealed with an optical adhesive cover, and luminescence readings were measured with an EnVision Plate Reader (Perkin Elmer).
(§9) Data was normalized using zero luminescence for baseline. A four-parameter non-linear regression curve fit was applied to dose-response data in GraphPad Prism data analysis software to determine the half-maximal growth inhibitory concentration (GI50) for each test compound.
(In general: ATP-based viability assays read luminescence as a measure of living cells.)

The subject of experiment [5] is T-Rex 293 cell line SC cells lacking increased expression of BCL6 protein. Put plainly: Cellular growth inhibition assay, T-Rex 293 SC cells without doxycycline (CellTiter-Glo). Particulars: T-Rex 293 SC cells not exposed to doxycycline (no increased BCL6 expression), 72 hours, CellTiter-Glo 2.0. It counts as cell-based. On the procedure:
as §3, §4, §5, §6, §7, §8, §9

For another experiment, the system named is Farage cell line. Put plainly: Cellular growth inhibition assay, Farage cells (CellTiter-Glo). It counts as cell-based. Particulars: Farage cell line (DLBCL), 72 hours, CellTiter-Glo 2.0. On the procedure:
Exemplary compounds were tested for ability to inhibit the proliferation of Su-DHL-4 and Farage cells. Su-DHL-4 and Farage cells are commercially available diffuse large B cell lymphoma cell lines (DLBCL).
Su-DHL-4 and Farage cells were purchased from American Type Cell Culture (ATCC Cat #CRL-2957/CRL-2630) and then seeded on poly-D-lysine coated, black clear-bottom 384-well plates at 3000/well in 25 μL Roswell Park Memorial Institute media (RPMI-1640) supplemented with 10% w/w Fetal bovine serum (FBS) and 1% w/w Pen-Strep. Pen-Strep is a commercially available mixture of penicillin G and streptomycin, which is used in mammalian cell culture media to prevent bacterial contamination. Roswell Park Memorial Institute media (RPMI-1640) supplemented with 10% w/w fetal bovine serum (FBS), and 1% w/w Pen-Strep is herein referred to as Treatment Medium. Following seeding of cells in the plates, the plates were spun at 300×g for 30 seconds, then equilibrated to room temperature for 30 minutes, and then deposited in a humidified tissue culture incubator maintained at 37° C. with 5% CO2.
as §7, §8, §9

pIC50, pKd: −log10 of the molar value.

A word on the pKd: it is the negative decadic logarithm of the Kd, by convention in mol/L. Lower therefore signals a high Kd. In general, pIC50 refers to the IC50 on a negative log10 scale, so that one unit is a factor of ten. The term GI50 denotes the concentration that inhibits growth by half. Read a low GI50 as more potent growth inhibition. `CNC(=O)COc1cc2cc(Nc3nc(N4CCCC5(CN(C[C@H]6C[C@H](Oc7ccc(C(C)(C)O)cc7-c7cn(C)c(=O)c8[nH]ccc78)C6)C5)C4)ncc3Cl)ccc2n(C)c1=O` [Compound I-41] gave a pKd in experiment [1] of 8.00 to 9.00. Besides, the pIC50 in experiment [2] is above 8.30; in experiment [3], below 6.30. For the same molecule, the GI50 is below 500 nM in experiment [4], above 3000 nM in experiment [5] and 1500 to 3000 nM with Farage cell line.

In experiment [1], `CNC(=O)COc1cc2cc(Nc3nc(N4CCC(CN5CCN(Cc6cccc(Oc7ccc(C(C)(C)O)cc7-c7cn(C)c(=O)c8[nH]ccc78)c6)CC5)CC4)ncc3Cl)ccc2n(C)c1=O` [Compound I-39] gave a pKd of 7.00 to 8.00. Further, the pIC50 is 7.30 to 8.30 in experiment [2] and above 8.30 in experiment [3]. Moreover, the GI50 (in experiment [4]; in experiment [5]; with Farage cell line) was below 500 nM each time.

Turning to `CNC(=O)COc1cc2cc(Nc3nc(N4CCCC5(CN(C[C@H]6C[C@@H](Oc7ccc(C(C)(C)O)cc7-c7cn(C)c(=O)c8[nH]ccc78)C6)C5)C4)ncc3Cl)ccc2n(C)c1=O` [Compound I-42], the pKd in experiment [1] is above 9.00. The pIC50 was above 8.30 in experiment [2] and below 6.30 in experiment [3]. Also, the GI50 in experiment [4] was below 500 nM; in experiment [5], above 3000 nM; in the experiment on Farage cell line it was 1500 to 3000 nM.

`CNC(=O)COc1cc2cc(Nc3nc(N4CCC(CN5CCN(Cc6ccc(Oc7ccc(C(C)(C)O)cc7-c7cn(C)c(=O)c8[nH]ccc78)cc6)CC5)CC4)ncc3Cl)ccc2n(C)c1=O` [Compound I-38]: the pKd in experiment [1] is below 7.00. Also, the pIC50 in experiment [2] and in experiment [3] was above 8.30 in each case. Besides, the GI50 (in experiment [4]; in experiment [5]; with Farage cell line) was below 500 nM throughout.

Consider `CNC(=O)COc1cc2cc(Nc3nc(N4CCC(CN5CCCC6(C5)CN(C[C@H]5C[C@@H](Oc7ccc(C(C)(C)O)cc7-c7cn(C)c(=O)c8[nH]ccc78)C5)C6)CC4)ncc3Cl)ccc2n(C)c1=O` [Compound I-44], for which the pKd in experiment [1] is 8.00 to 9.00. Further, the pIC50 in experiment [2] and in experiment [3] was above 8.30 in each case. For the same molecule, the GI50 was below 500 nM in experiment [4], 500 to 1500 nM in experiment [5] and below 500 nM in the experiment on Farage cell line.

On to `CNC(=O)COc1cc2cc(Nc3nc(N4CCC(N5CCN(Cc6cccc(Oc7ccc(C(C)(C)O)cc7-c7cn(C)c(=O)c8[nH]ccc78)c6)CC5)CC4)ncc3Cl)ccc2n(C)c1=O` [Compound I-40], for which the pKd in experiment [1] is 7.00 to 8.00. Besides, the pIC50 in experiment [2] and in experiment [3] was above 8.30 throughout. The GI50 (in experiment [4]; in experiment [5]; in the experiment on Farage cell line) was below 500 nM throughout.

For the molecule `CNC(=O)COc1cc2cc(Nc3nc(N4CCN(CCN5CCN(Cc6cccc(Oc7ccc(C(C)(C)O)cc7-c7cn(C)c(=O)c8[nH]ccc78)c6)CC5)CC4)ncc3Cl)ccc2n(C)c1=O` [Compound I-47], the pKd in experiment [1] is 8.00 to 9.00. Also, the pIC50 in experiment [2] and in experiment [3] was above 8.30 in each case. The GI50 (in experiment [4]; in experiment [5]; in the experiment with Farage cell line) was below 500 nM throughout.

In experiment [1], `CNC(=O)COc1cc2cc(Nc3nc(N4CCC(N5CCN(Cc6ccc(Oc7ccc(C(C)(C)O)cc7-c7cn(C)c(=O)c8[nH]ccc78)cc6)CC5)CC4)ncc3Cl)ccc2n(C)c1=O` [Compound I-48] showed a pKd of 7.00 to 8.00. For the same molecule, the pIC50 in experiment [2] and in experiment [3] was above 8.30 in each case. The GI50 (in experiment [4]; in experiment [5]; with Farage cell line) was below 500 nM each time.

Take `CNC(=O)COc1cc2cc(Nc3nc(N4CCC5(CC4)CC(Oc4ccc(C6=N[C@@H](C)c7nnc(C)n7-c7sc(C)c(C)c76)cc4)C5)ncc3Cl)ccc2n(C)c1=O` [Compound I-28, 2-[[6-[[5-chloro-2-[2-[4-[(9S)-4,5,9,13-tetramethyl-3-thia-1,8,11,12-tetrazatricyclo[8.3.0.02,6]trideca-2 (6),4,7,10,12-pentaen-7-yl]phenoxy]-7-azaspiro[3.5]nonan-7-yl]pyrimidin-4-yl]amino]-1-methyl-2-oxo-3-quinolyl]oxy]-N-methyl-acetamide]: the GI50 (in experiment [4]; in experiment [5]; with Farage cell line) was below 500 nM each time.

For the origin of these results see patent publication US20260028338A1, “HETEROBIFUNCTIONAL COMPOUNDS AND METHODS OF TREATING DISEASE” (Halda Therapeutics OpCo, Inc., priority 2023, published 2026).
